Test results as given in patent US20180037595A1, “BENZOXABOROLE COMPOUNDS AND USES THEREOF” (GLAXOSMITHKLINE INTELLECTUAL PROPERTY (NO.2) LIMITED, priority 2015, published 2018).
Values after ≈ are worked out from the molar mass of the structure shown. Like-named read-outs stand apart in the source and are kept apart here.

Experiments:
[1] = test system: M. tuberculosis clinical isolates; experiment: MIC against clinical strains (BACTEC MGIT 960 System); type: cell-based; details: Mycobacterium tuberculosis, nearly all of the clinical isolate strains of Tables 2A-2D
[2] = target: Mtb LeuRS (Mycobacterium tuberculosis, UniProt P9WFV1); experiment: LeuRS aminoacylation assay, IC50 determination; type: biochemical, M. tuberculosis
Mtb LeuRS, sequence (P9WFV1 whole entry): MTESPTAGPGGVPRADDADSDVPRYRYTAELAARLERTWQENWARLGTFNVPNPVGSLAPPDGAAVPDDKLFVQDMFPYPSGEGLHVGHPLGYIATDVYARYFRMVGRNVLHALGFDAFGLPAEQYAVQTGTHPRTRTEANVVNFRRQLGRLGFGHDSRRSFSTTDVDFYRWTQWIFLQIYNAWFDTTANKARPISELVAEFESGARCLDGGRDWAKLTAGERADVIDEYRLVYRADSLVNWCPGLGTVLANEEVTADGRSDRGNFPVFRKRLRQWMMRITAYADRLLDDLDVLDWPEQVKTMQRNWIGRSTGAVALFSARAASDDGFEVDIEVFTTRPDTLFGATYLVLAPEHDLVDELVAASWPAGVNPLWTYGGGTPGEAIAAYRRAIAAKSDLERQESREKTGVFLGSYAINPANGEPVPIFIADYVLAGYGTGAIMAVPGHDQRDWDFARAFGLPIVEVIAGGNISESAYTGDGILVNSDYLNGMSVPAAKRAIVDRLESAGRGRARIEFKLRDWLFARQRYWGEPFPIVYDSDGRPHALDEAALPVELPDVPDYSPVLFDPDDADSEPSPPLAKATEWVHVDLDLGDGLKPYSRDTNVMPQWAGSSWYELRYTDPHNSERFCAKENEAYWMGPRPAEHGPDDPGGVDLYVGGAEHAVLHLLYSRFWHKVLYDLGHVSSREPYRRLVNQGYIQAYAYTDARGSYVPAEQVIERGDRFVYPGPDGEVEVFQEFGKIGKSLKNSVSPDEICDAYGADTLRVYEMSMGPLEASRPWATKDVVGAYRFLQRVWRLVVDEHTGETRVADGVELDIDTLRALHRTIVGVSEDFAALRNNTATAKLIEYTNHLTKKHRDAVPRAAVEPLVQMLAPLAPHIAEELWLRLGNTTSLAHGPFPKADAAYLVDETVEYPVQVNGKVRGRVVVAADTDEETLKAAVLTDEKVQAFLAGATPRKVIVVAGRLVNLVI
Experimental: For biochemical analyses an N-terminal six histidine-tagged LeuRS was over-expressed in Escherichia coli which were E. coli codon-optimised (GenScript, Piscataway N.J., USA), from human mitochondria and cytoplasm, and M. tuberculosis. N-terminal six histidine-tagged LeuRS proteins were over-expressed and purified according to Novagen (Madison, Wis., USA) using an E. coli BL21(DE3) T7 RNA polymerase over-expression strain.
Experiments were performed in 96-well microtiter plates, using 80 μL reaction mixtures containing 50 mM HEPES-KOH (pH 8.0), 30 mM MgCl2 30 mM KCl, 13 μM L-[^14C]leucine (306 mCi/mmol, Perkin-Elmer), 15 uM total E. coli tRNA (Roche, Switzerland), 0.02% (w/v) BSA, 1 mM DTT, 0.2 μM LeuRS and 4 mM ATP at 30° C. Reactions were started by the addition of 4 mM ATP. After 7 minutes, reactions were quenched and tRNA was precipitated by the addition of 50 μL of 10% (w/v) TCA and transferred to 96-well nitrocellulose membrane filter plates (Millipore Multiscreen HTS, MSHAN4B50). Each well was then washed three times with 100 μL of 5% TCA. Filter plates were then dried under a heat lamp and the precipitated L-[^14C]leucine tRNALeu were quantified by liquid scintillation counting using a Wallac MicroBeta Trilux model 1450 liquid scintillation counter (PerkinElmer, Waltham, Mass., USA). The only difference was with the human cytoplasmic LeuRS when we used tRNA isolated from Brewer's Yeast (Roche Diagnostics GmbH).
Reactions were initiated by the addition of 4 mM ATP. Reactions were stopped after 7 minutes then precipitated and counted to quantify radioactivity. IC50 values were determined using the Graphpad Prism software package (Graphpad Software Inc. (La Jolla, Calif., USA).

[3] = test system: M. tuberculosis standard strain Mtb H37Rv; experiment: MIC determination against mycobacteria (resazurin microtiter assay); type: cell-based, Mycobacterium tuberculosis; details: for Selectivity Index (A/B): HepG2 cell 48 h Tox50 (A) / Mtb H37Rv MIC (B); for MIC: Mycobacterium tuberculosis, H37RV, read-out: Mtb H37Rv MIC (B)
[4] = test system: HepG2 cells; experiment: HepG2 cytotoxicity assay (resazurin); type: cell-based
[5] = target: T1, Human mito LeuRS (Homo sapiens, UniProt Q15031); experiment: LeuRS aminoacylation assay, IC50 determination; type: biochemical
T1 sequence (Q15031 1-903): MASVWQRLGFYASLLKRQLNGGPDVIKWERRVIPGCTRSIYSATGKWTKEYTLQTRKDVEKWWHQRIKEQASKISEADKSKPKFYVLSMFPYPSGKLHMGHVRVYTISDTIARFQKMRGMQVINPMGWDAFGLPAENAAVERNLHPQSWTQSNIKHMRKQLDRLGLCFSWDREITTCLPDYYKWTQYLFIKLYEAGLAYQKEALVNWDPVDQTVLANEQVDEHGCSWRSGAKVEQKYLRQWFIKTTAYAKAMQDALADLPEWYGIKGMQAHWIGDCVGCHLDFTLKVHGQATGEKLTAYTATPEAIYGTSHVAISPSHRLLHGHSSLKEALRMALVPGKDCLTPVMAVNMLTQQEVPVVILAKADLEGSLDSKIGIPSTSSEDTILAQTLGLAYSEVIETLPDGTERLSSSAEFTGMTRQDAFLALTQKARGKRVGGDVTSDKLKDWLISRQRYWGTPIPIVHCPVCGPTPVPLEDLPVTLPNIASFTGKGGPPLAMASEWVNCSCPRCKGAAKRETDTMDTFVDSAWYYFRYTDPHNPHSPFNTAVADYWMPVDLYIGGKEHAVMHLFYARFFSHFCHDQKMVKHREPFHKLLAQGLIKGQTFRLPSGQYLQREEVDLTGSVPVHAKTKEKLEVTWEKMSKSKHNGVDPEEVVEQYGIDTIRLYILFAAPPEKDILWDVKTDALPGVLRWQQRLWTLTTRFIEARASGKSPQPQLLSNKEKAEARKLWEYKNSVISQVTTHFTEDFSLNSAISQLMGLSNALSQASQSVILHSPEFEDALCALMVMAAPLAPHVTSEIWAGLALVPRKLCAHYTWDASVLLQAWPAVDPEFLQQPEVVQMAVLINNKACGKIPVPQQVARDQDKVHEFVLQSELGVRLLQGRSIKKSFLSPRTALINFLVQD

[6] = target: Human cyto LeuRS (Homo sapiens, UniProt Q9P2J5); experiment: LeuRS aminoacylation assay, IC50 determination; type: biochemical
Human cyto LeuRS, sequence (Q9P2J5 whole entry): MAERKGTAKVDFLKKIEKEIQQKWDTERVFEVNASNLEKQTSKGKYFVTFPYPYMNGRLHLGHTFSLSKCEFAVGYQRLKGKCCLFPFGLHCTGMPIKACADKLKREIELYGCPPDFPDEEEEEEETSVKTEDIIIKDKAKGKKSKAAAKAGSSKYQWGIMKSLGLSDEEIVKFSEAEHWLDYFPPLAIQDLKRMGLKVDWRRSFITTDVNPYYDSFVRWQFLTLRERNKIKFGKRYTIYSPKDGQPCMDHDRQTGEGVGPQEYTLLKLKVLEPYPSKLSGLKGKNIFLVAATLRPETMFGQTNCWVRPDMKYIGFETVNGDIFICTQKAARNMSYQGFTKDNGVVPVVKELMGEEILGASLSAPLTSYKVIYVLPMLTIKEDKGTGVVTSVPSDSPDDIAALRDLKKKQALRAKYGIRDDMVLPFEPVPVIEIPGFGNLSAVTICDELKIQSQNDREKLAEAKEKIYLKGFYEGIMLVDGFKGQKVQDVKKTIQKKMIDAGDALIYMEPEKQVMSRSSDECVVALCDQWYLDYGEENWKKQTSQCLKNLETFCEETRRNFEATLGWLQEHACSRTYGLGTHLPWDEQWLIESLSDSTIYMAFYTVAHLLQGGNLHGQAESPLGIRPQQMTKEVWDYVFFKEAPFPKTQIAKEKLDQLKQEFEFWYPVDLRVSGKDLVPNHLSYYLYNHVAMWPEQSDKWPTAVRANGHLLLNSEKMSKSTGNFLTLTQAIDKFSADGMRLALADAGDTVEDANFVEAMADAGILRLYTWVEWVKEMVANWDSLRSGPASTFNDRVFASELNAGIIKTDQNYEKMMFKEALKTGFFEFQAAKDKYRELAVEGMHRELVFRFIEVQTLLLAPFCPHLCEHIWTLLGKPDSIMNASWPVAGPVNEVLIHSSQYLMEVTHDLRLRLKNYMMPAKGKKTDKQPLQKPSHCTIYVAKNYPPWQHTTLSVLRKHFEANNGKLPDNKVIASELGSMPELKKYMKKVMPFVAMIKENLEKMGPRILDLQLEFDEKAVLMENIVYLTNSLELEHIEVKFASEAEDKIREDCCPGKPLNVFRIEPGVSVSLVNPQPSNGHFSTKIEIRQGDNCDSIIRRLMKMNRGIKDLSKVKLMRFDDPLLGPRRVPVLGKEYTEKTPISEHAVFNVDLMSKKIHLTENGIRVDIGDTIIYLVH

[7] = test system: P. aeruginosa PA01; experiment: General antimicrobial activity assay (CLSI broth microdilution); type: cell-based
Experimental: (§1) Whole-cell antimicrobial activity was determined by broth microdilution using the Clinical and Laboratory Standards Institute (CLSI) recommended procedure, Document M7-A7, “Methods for Dilution Susceptibility Tests for Bacteria that Grow Aerobically”.

[8] = test system: A. baumannii ATCC 17978; experiment: as above; type: cell-based
Experimental: as §1

[9] = test system: E. coli K12 tolC::Tn10; experiment: as above; type: cell-based; details: Escherichia coli, read-out: MIC: E. coli K12 tolC::Tn10
Experimental: as §1

[10] = test system: E. coli K12; experiment: as above; type: cell-based
Experimental: as §1

[11] = Homo sapiens, HepG2, 48 h; read-out: HepG2 cell 48 h Tox50 (A)
[12] = Pseudomonas aeruginosa, PA01; read-out: MIC: P. aeruginosa PA01
[13] = Acinetobacter baumannii, ATCC17978; read-out: MIC: A. baumannii ATCC 17978
[14] = Escherichia coli, K12; read-out: MIC: E. coli K12
[15] = Homo sapiens, HepG2, 48 h, read-out: HepG2 cell 48 h Tox50 (A)
[16] = Pseudomonas aeruginosa, PA01, read-out: MIC: P. aeruginosa PA01
[17] = Acinetobacter baumannii, ATCC17978, read-out: MIC: A. baumannii ATCC 17978
[18] = Escherichia coli, K12, read-out: MIC: E. coli K12
[19] = said to be sub-micromolar, read-out: IC50 values against M. tuberculosis
[20] = listed as EXAMPLE 4 G4-Cl, hydrochloride

Compound	IC50 ([2]; read-out: Mtb LeuRS IC50) [µM]	Selectivity Index (A/B) [3]	IC50 [4, 11] [µM]	IC50 [5] [µM]	IC50 [6] [µM]	MIC [9] [µg/mL]	MIC [3] [µM]	IC50 [4, 15] [µM]	MIC [7, 16] [µg/mL]	MIC [8, 17] [µg/mL]	MIC [10, 18] [µg/mL]	also measured
NC[C@H]1OB2OCCOc3ccc(Cl)c1c32 [Example G4-CI]												MIC [1]: < 0.1 µM
CCOc1cccc2c1B(O)O[C@@H]2CN [Example C5-H, reference compound]	0.111	5	1.8	> 300	25.6							
CCOc1ccc(Br)c2c1B(O)O[C@@H]2CN [Example C4-Br, reference compound]			32	> 300	31	64 (≈ 224 µM)						IC50 ([2]; Mtb LeuRS IC50): 0.07 µM; MIC [7, 12]: 64 µg/mL (≈ 224 µM); MIC [8, 13]: 64 µg/mL (≈ 224 µM); MIC [10, 14]: 64 µg/mL (≈ 224 µM)
CC1(C)COc2ccc(Br)c3c2B(OC3CN)O1.Cl (centres unmarked) [Example 9, (3-bromo-8,8-dimethyl-7,8-dihydro-2H-1,6,9-trioxa-9a-borabenzo[cd]azulen-2-yl)methanamine hydrochloride]	1.25				> 300	> 64	0.3	> 50	> 64	> 64	> 64	Selectivity Index (A/B) ([3]; listed as EXAMPLE 9 G9-Br, hydrochloride): >167; Selectivity Index (A/B) ([3]; listed as Example 9 G9-Br, hydrochloride): > 167
NCC1OB2OCCOc3cccc1c32 (racemic) [Example C2-H, reference compound]	0.506	>26		> 300	272	4 (≈ 19.5 µM)		> 50	2 (≈ 9.76 µM)	2 (≈ 9.76 µM)	2 (≈ 9.76 µM)	
Cl.NC[C@H]1OB2OCCOc3ccc(Br)c1c32 [Example 2, (S)-(3-bromo-7,8-dihydro-2H-1,6,9-trioxa-9a-borabenzo[cd]azulen-2-yl)methanamine hydrochloride]	0.115	4177		> 300	118	64	< 0.1	292	64	64	64	IC50 [2, 19]: 0.13 µM; MIC [1]: < 0.1 µM; Mtb H37Rv MIC (B) ([3]; listed as EXAMPLE 2 G2-Br, hydrochloride): 0.07 µM
CC1(C)COc2ccc(Br)c3c2B(O[C@@H]3CN)O1.Cl [Example 10, (S)-(3-bromo-8,8-dimethyl-7,8-dihydro-2H-1,6,9-trioxa-9a-borabenzo[cd]azulen-2-yl)methanamine hydrochloride]	1.13				> 300	> 64	0.16	460	> 64	> 64	> 64	
Cl.NC[C@H]1OB2OCCOc3ccc(Cl)c1c32 [Example 4, (S)-(3-chloro-7,8-dihydro-2H-1,6,9-trioxa-9a-borabenzo[cd]azulen-2-yl)methanamine hydrochloride]	0.148			> 300	94.7	64	< 0.1	> 1000	64	64	64	IC50 [2, 19]: 0.1 µM; Selectivity Index (A/B) [3, 20]: >12500; Selectivity Index (A/B) ([3]; listed as Example 4 G4-CI, hydrochloride): > 12,500; Mtb H37Rv MIC (B) [3, 20]: 0.08 µM
CCOc1ccc(Cl)c2c1B(O)O[C@@H]2CN [Example C6-Cl, reference compound]			36.3	> 300		64 (≈ 265 µM)						IC50 ([2]; Mtb LeuRS IC50): 0.05 µM; MIC [7, 12]: 64 µg/mL (≈ 265 µM); MIC [8, 13]: 64 µg/mL (≈ 265 µM); MIC [10, 14]: 64 µg/mL (≈ 265 µM)
CC1COc2ccc(Br)c3c2B(O1)OC3CN.Cl (centres unmarked) [Example 8, (3-bromo-8-methyl-7,8-dihydro-2H-1,6,9-trioxa-9a-borabenzo[cd]azulen-2-yl)methanamine hydrochloride]	1.43	>167			> 300	> 64	0.3	> 50	> 64	> 64	> 64	
